Experimental data reported in ChEMBL document CHEMBL1201862, “PubChem BioAssay data set” (2004).
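Interpolation was linear, between the two tested concentrations surrounding the appropriate level; five concentrations were tested over 48 hours in 96-well plates. GI50 = concentration required for 50% inhibition of growth.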 Active and inactive are the calls of the source. Rule as the data show it: active = GI50 up to about 1.1 µM and inactive = higher.

How the values were obtained:
Experiment in all cases: DTP human tumour cell line panel, 48 h
MOLT-4 = test system: MOLT-4
HOP-92 = test system: HOP-92
NCI-H23 = test system: NCI-H23
HL-60 = test system: HL-60
SN12C = test system: SN12C
UACC-257 = test system: UACC-257
Hs-578T = test system: Hs-578T
SW-620 = test system: SW-620
NCI-H522 = test system: NCI-H522
SF-268 = test system: SF-268
EKVX = test system: EKVX
SK-MEL-5 = test system: SK-MEL-5
CAKI-1 = test system: CAKI-1
BT-549 = test system: BT-549
UO-31 = test system: UO-31
HT-29 = test system: HT-29
PC-3 = test system: PC-3
HCT-116 = test system: HCT-116
MDA-MB-435 = test system: MDA-MB-435
SF-295 = test system: SF-295
UACC-62 = test system: UACC-62
MCF7 = test system: MCF7
KM12 = test system: KM12
NCI-H460 = test system: NCI-H460
OVCAR-5 = test system: OVCAR-5
SK-MEL-28 = test system: SK-MEL-28
RPMI-8226 = test system: RPMI-8226
LOX IMVI = test system: LOX IMVI
COLO 205 = test system: COLO 205
HCT-15 = test system: HCT-15
OVCAR-3 = test system: OVCAR-3
SK-MEL-2 = test system: SK-MEL-2
Malme-3M = test system: Malme-3M
M14 = test system: M14
DU-145 = test system: DU-145
U-251 = test system: U-251
IGROV-1 = test system: IGROV-1
MDA-N = test system: MDA-N
SK-OV-3 = test system: SK-OV-3
786-0 = test system: 786-0
K562 = test system: K562
A498 = test system: A498
ACHN = test system: ACHN
HCC 2998 = test system: HCC 2998
T47D = test system: T47D
OVCAR-8 = test system: OVCAR-8
OVCAR-4 = test system: OVCAR-4
SNB-75 = test system: SNB-75
MDA-MB-231 = test system: MDA-MB-231
TK-10 = test system: TK-10
A549 = test system: A549
NCI-H226 = test system: NCI-H226
SF-539 = test system: SF-539
NCI/ADR-RES = test system: NCI/ADR-RES
SNB-19 = test system: SNB-19
CCRF-CEM = test system: CCRF-CEM
SR = test system: SR
HOP-62 = test system: HOP-62
RXF 393 = test system: RXF 393

Measured: GI50

O=C(/C=C/c1ccccc1)CCC1C(=O)NC(=O)NC1=O
> 100 µM: HCT-15
inactive: MOLT-4 35.7 µM | HOP-92 > 100 µM | NCI-H23 > 100 µM | HL-60 > 100 µM | SN12C > 100 µM | UACC-257 > 100 µM | Hs-578T > 100 µM | SW-620 > 100 µM | NCI-H522 > 100 µM | SF-268 > 100 µM | EKVX > 100 µM | SK-MEL-5 > 100 µM | CAKI-1 > 100 µM | BT-549 > 100 µM | UO-31 > 100 µM | HT-29 > 100 µM | PC-3 > 100 µM | HCT-116 > 100 µM | MDA-MB-435 > 100 µM | SF-295 > 100 µM | UACC-62 > 100 µM | MCF7 > 100 µM | KM12 > 100 µM | NCI-H460 > 100 µM | OVCAR-5 > 100 µM | SK-MEL-28 > 100 µM | RPMI-8226 43.4 µM | LOX IMVI > 100 µM | COLO 205 > 100 µM | OVCAR-3 > 100 µM | SK-MEL-2 > 100 µM | Malme-3M > 100 µM | M14 > 100 µM | DU-145 > 100 µM | U-251 > 100 µM | IGROV-1 > 100 µM | MDA-N > 100 µM | SK-OV-3 > 100 µM | 786-0 > 100 µM | K562 97.9 µM | A498 > 100 µM | ACHN > 100 µM | HCC 2998 > 100 µM | T47D > 100 µM | OVCAR-8 > 100 µM | OVCAR-4 > 100 µM | SNB-75 > 100 µM | MDA-MB-231 > 100 µM | TK-10 > 100 µM | A549 > 100 µM | NCI-H226 > 100 µM | SF-539 > 100 µM | NCI/ADR-RES > 100 µM | SNB-19 > 100 µM

COC(=O)c1c(C)cccc1C1CN=NC12Cc1cccc(C)c1C2=O (centres undefined)
inactive: HOP-92 14.8 µM | NCI-H23 32.2 µM | HL-60 11.7 µM | SN12C 27.2 µM | UACC-257 19.6 µM | Hs-578T > 100 µM | SW-620 43.2 µM | NCI-H522 15.9 µM | SF-268 83.4 µM | EKVX 32 µM | SK-MEL-5 17.8 µM | CAKI-1 37.7 µM | BT-549 23.6 µM | UO-31 14.4 µM | CCRF-CEM 19.8 µM | HT-29 33 µM | PC-3 20.3 µM | HCT-116 28 µM | MDA-MB-435 31.1 µM | SR 26.7 µM | HOP-62 53.6 µM | UACC-62 26.9 µM | MCF7 30.8 µM | KM12 31.7 µM | NCI-H460 12.6 µM | OVCAR-5 85.7 µM | SK-MEL-28 29.6 µM | RPMI-8226 17.2 µM | LOX IMVI 13.6 µM | COLO 205 42.7 µM | SK-MEL-2 32.7 µM | Malme-3M 29.1 µM | M14 10.4 µM | DU-145 47.3 µM | U-251 39.4 µM | IGROV-1 27.7 µM | MDA-N 33.6 µM | RXF 393 30.5 µM | 786-0 39.1 µM | K562 25.9 µM | A498 52 µM | ACHN 27.4 µM | HCC 2998 38 µM | T47D 24 µM | OVCAR-8 33.9 µM | OVCAR-4 23.9 µM | SNB-75 38.4 µM | TK-10 35 µM | A549 18.9 µM | NCI-H226 20.9 µM | SF-539 22.8 µM | NCI/ADR-RES 21.7 µM | SNB-19 48.8 µM
34 µM: HCT-15
